In BindingDB's records for doi:10.1016/j.bmcl.2008.11.105 (Pfizer, 2009):

Molecular target: T1, Protein kinase C zeta type (Homo sapiens, UniProt Q05513)
T1 sequence (Q05513 whole entry): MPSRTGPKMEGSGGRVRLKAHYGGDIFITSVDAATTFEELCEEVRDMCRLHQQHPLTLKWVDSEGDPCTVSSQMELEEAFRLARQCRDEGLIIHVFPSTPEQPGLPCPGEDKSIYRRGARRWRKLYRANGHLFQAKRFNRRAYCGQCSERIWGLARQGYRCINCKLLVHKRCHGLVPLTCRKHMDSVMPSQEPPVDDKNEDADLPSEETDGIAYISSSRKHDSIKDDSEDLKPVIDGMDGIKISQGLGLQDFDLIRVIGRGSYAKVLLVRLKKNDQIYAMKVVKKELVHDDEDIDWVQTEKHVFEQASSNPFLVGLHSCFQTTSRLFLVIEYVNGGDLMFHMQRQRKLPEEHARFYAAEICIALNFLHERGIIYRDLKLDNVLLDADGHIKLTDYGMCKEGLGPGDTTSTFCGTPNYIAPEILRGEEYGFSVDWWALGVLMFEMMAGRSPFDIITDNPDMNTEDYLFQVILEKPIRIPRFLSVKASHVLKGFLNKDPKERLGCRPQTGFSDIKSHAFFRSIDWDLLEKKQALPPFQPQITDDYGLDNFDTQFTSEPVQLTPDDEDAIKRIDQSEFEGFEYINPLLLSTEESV
Assay: PKC Enzyme Assay
Conditions: pH 7.5; 23 °C
Experimental: Protein kinase C (PKC), zeta activity was measured by following the phosphorylation of a biotinylated peptide substrate in the presence of ATP using AlphaScreen technology (Perkin Elmer, Waltham, MA). The AlphaScreen assay format relies on bringing a streptavidin coated donor bead and an IgG-protein A acceptor bead into proximity through the interaction between biotinylated phosphorylated peptide and a phospho-specific antibody to the peptide. Upon excitation of the donor bead at 680 nm, excited state singlet oxygen is produced and diffuses to acceptor beads in close proximity (200 nm), activating a cascade of fluorophores resulting in emission between 520-620 nm. Kinase activity is quantified through the evaluation of this emission signal. Compounds are evaluated as potential inhibitors of the PKC kinase activity by measuring their effects on the phosphorylation of the peptide substrate. IC50 value determinations were made for potential inhibitors by testing compounds at 12 concentrations in three-fold serial dilutions with each concentration tested in triplicate. Reactions were carried out for 60 minutes at room temperature. Reactions were then quenched by addition of stop solution. […] Plates were then read on a Fusion reader after an overnight equilibrium at room temperature.

Compound | IC50
CN1CCN(c2cccc3[nH]c(-c4n[nH]c5cc(-c6ccc7ncccc7c6)ccc45)nc23)CC1 [indazole-benzimidazole, 23] | 6.84 µM
CN1CCN(c2cccc3[nH]c(-c4n[nH]c5cc(-c6ccc7ccoc7c6)ccc45)nc23)CC1 [indazole-benzimidazole, 25] | 3.02 µM
